Where a name gives a salt, the structure may show the parent alone.
These compounds were tested on EGR1 promoter (assay: EGR1 reporter assay (luciferase) in genomically engineered HeLa cell line). Conditions: Homo sapiens; EGR1 reporter HeLa cells, luciferase activity after 24 hours with compound.
Format: cell-based
Source text: The compounds of the present invention can be characterized for their effect on expression of egr1 (early growth response protein 1) using an EGR1 reporter cell line.
The HeLa cell line was genetically modified to provide a simple, robust and highly reproducible cell-based assay reporting the activity of an endogenous EGR1 promoter. In brief, a construct encoding EGFP and luciferase proteins, separated by a self-cleaving P2A peptide was inserted, using CRISPR, immediately downstream (3′) to the promoter of endogenous EGR1. Upon treatment with compounds, cells express EGFP and luciferase from EGR1 promoter, which can be readily detected either in live cells using microscopy or cytometry, or through detection of luciferase activity in cell lysates.
To achieve stable genomic integration of an EGR1-promoter dual reporter, two plasmids were generated: one contained the reporter construct (eGFP-P2A-luciferase) flanked by homology arms that direct insertion into genomic DNA, by homologous recombination, of a break in genomic DNA generated by guide RNA targeted cleavage by Cas9 endonuclease. The gRNA expressing plasmid was based on px330 (56), into which a gRNA sequence that targets a break in gDNA close to the start codon of EGR1 was cloned. The left homology arm (encoding part of EGR1 promoter adjacent to its start codon) and right homology arm (encoding […] of start codon of EGR1) were cloned from gDNA using the following primers: […]
The present compounds can be tested, e.g. by using a HeLa cell line carrying an EGR1 reporter construct which allows for expression of luciferase and eGFP (enhanced GFP) controlled by the EGR1 promoter. For this reporter cells are seeded in the wells of a 384 well microtiter plate at a density of 2000 cells per well in 48 μl of DMEM supplemented with 4.5 g/l glucose, 2 mM glutamine and 10% FCS and are incubated for 24 hours at 37° C. with 5% CO2 and 95% humidity. Then, an eleven point 1:3 serial dilution of each test compound, from an initial concentration of 100 μM, is prepared in DMSO and the dilutions are added to the cells in a volume of 2 μl per well. The cells are incubated for a further 24 hours, after which the luciferase activity of each well is determined by addition of 25 μl of luciferase substrate reaction mixture (Britelite™ plus, Perkin Elmer) and measuring the bioluminescence light output (EnVision Xcite plate reader, PerkinElmer).
The compound of example 64 served as a positive control for this EGR1 reporter assay. The compound of example 64 had been identified in an initial high throughput screening campaign.

Row | Structure (SMILES) | EC50 [µM]
1 | NC(=O)c1cnc(NC(=O)Cc2coc3cc4c(cc23)CCC4)s1 [Example 18, 2-[[2-(6,7-Dihydro-5H-cyclopenta[f]benzofuran-3-yl)acetyl]amino]thiazole-5-carboxamide] | 10 to 100
2 | Cc1cnc(NC(=O)Cc2coc3cc4c(cc23)CCC4)o1 [Example 17, 2-(6,7-Dihydro-5H-cyclopenta[f]benzofuran-3-yl)-N-(5-methyloxazol-2-yl)acetamide] | 10 to 100
3 | Cc1cnc(NC(=O)Cc2coc3cc4c(cc23)OCO4)s1 [Example 34, 2-Furo[3,2-f][1,3]benzodioxol-7-yl-N-(5-methylthiazol-2-yl)acetamide] | 0.01 to 10
4 | CC(=O)c1csc(NC(=O)Cc2coc3cc(C)ccc23)n1 [Example 24, N-(4-Acetylthiazol-2-yl)-2-(6-methylbenzofuran-3-yl)acetamide] | 0.01 to 10
5 | Cc1ccc2c(CC(=O)Nc3nc(-c4ccc(C)o4)cs3)coc2c1 [Example 36, 2-(6-Methylbenzofuran-3-yl)-N-[4-(5-methyl-2-furyl)thiazol-2-yl]acetamide] | 0.01 to 10
6 | O=C(CCc1coc2ccccc12)Nc1ncc(C(F)(F)F)s1 [Example 44, 3-(Benzofuran-3-yl)-N-[5-(trifluoromethyl)thiazol-2-yl]propanamide] | 0.01 to 10
7 | NCc1ccc(-c2csc(NC(=O)Cc3coc4cc5c(cc34)CCC5)n2)o1 [Example 100, hydrochloride salt] | 0.01 to 10
8 | CCc1cnc(NC(=O)Cc2coc3c(C)c(C)ccc23)s1 [Example 98, 2-(6,7-Dimethylbenzofuran-3-yl)-N-(5-ethylthiazol-2-yl)acetamide] | 0.01 to 10
9 | CCc1ccc2c(CC(=O)Nc3nc(C)cs3)coc2c1 [Example 35, 2-(6-Ethylbenzofuran-3-yl)-N-(4-methylthiazol-2-yl)acetamide] | 0.01 to 10
10 | CC(C(=O)Nc1ncc(C(F)(F)F)s1)c1coc2cc(Cl)ccc12 (stereo not shown) [Example 66, 2-(6-Chlorobenzofuran-3-yl)-N-[5-(trifluoromethyl)thiazol-2-yl]propanamide] | 0.01 to 10
11 | O=C(Cc1coc2c(Cl)c(Cl)ccc12)Nc1ncc(C(F)(F)F)[nH]1 [Example 49, 2-(6,7-Dichlorobenzofuran-3-yl)-N-[5-(trifluoromethyl)-1H-imidazol-2-yl]acetamide] | 0.01 to 10
12 | Cc1cc2occ(CC(=O)N(c3ccc(SC(F)F)cc3)c3nc4ccccc4s3)c2cc1C(C)C [Example 81, N-(1,3-Benzothiazol-2-yl)-N-[4-(difluoromethylsulfanyl)phenyl]-2-(5-isopropyl-6-methyl-benzofuran-3-yl)acetamide] | 0.01 to 10
13 | COc1ccc(OC)c(-c2csc(NC(=O)Cc3coc4cc(OC)ccc34)n2)c1 [Example 14, N-[4-(2,5-Dimethoxyphenyl)thiazol-2-yl]-2-(6-methoxybenzofuran-3-yl)acetamide] | 10 to 100
14 | COc1ccc2c(CC(=O)Nc3nc(-c4ccc(C5CCCCC5)cc4)cs3)coc2c1 [Example 76, N-[4-(4-Cyclohexylphenyl)thiazol-2-yl]-2-(6-methoxybenzofuran-3-yl)acetamide] | 0.01 to 10
15 | COc1ccc2c(CC(=O)Nc3nc(-c4cccs4)cs3)coc2c1 [Example 37, 2-(6-Methoxybenzofuran-3-yl)-N-[4-(2-thienyl)thiazol-2-yl]acetamide] | 0.01 to 10
16 | COCc1cnc(NC(=O)Cc2coc3c(Cl)c(Cl)ccc23)s1 [Example 93, 2-(6,7-Dichlorobenzofuran-3-yl)-N-[5-(methoxymethyl)thiazol-2-yl]acetamide] | 0.01 to 10
17 | Cc1ccc2c(CC(=O)Nc3nccs3)coc2c1 [Example 42, 2-(6-Methylbenzofuran-3-yl)-N-thiazol-2-yl-acetamide] | 0.01 to 10

Row | Structure (SMILES) | EC50 [µM]
18 | CCc1ccc2c(CC(=O)N(c3ccc(C(C)=O)cc3)c3nc4ccccc4s3)coc2c1 [Example 69, N-(4-Acetylphenyl)-N-(1,3-benzothiazol-2-yl)-2-(6-ethylbenzofuran-3-yl)acetamide] | 0.01 to 10
19 | O=C(Cc1coc2cc(Cl)ccc12)Nc1ncc(C(F)(F)F)s1 [Example 60, 2-(6-Chlorobenzofuran-3-yl)-N-[5-(trifluoromethyl)thiazol-2-yl]acetamide] | 0.01 to 10
20 | CC(=O)NCCc1ccc(-c2csc(NC(=O)Cc3coc4cc(C)ccc34)n2)s1 [Example 28, N-[4-[5-(2-Acetamidoethyl)-2-thienyl]thiazol-2-yl]-2-(6-methylbenzofuran-3-yl)acetamide] | 0.01 to 10
21 | Cc1ccc2c(CC(=O)Nc3ncc(C#N)s3)coc2c1C [Example 62, N-(5-Cyanothiazol-2-yl)-2-(6,7-dimethylbenzofuran-3-yl)acetamide] | 0.01 to 10
22 | COc1c(C)ccc2c(CC(=O)Nc3ncc(C)s3)coc12 [Example 86, 2-(7-Methoxy-6-methyl-benzofuran-3-yl)-N-(5-methylthiazol-2-yl)acetamide] | 0.01 to 10
23 | COCc1cnc(NC(=O)Cc2coc3c(C)c(C)ccc23)s1 [Example 87, 2-(6,7-Dimethylbenzofuran-3-yl)-N-[5-(methoxymethyl)thiazol-2-yl]acetamide] | 0.01 to 10
24 | Cc1ccc2c(CC(=O)Nc3ncc(C#N)s3)coc2c1Cl [Example 59, 2-(7-Chloro-6-methyl-benzofuran-3-yl)-N-(5-cyano-1H-thiazol-2-yl)acetamide] | 0.01 to 10
25 | N#Cc1cnc(NC(=O)Cc2coc3cc(Cl)ccc23)s1 [Example 46, 2-(6-Chlorobenzofuran-3-yl)-N-(5-cyanothiazol-2-yl)acetamide] | 0.01 to 10
26 | Cc1cnc(NC(=O)Cc2coc3ncccc23)s1 [Example 104, 2-(Furo[2,3-b]pyridin-3-yl)-N-(5-methylthiazol-2-yl)acetamide] | 10 to 100
27 | CCc1ccc2c(CC(=O)Nc3nc(-c4ccc(CNC(C)=O)cc4)cs3)coc2c1 [Example 30, N-[4-[4-(Acetamidomethyl)phenyl]thiazol-2-yl]-2-(6-ethylbenzofuran-3-yl)acetamide] | 0.01 to 10
28 | Cc1c[nH]c(NC(=O)Cc2coc3cc4c(cc23)CCC4)n1 [Example 23, 2-(6,7-dihydro-5H-cyclopenta[f]benzofuran-3-yl)-N-(5-methyl-1H-imidazol-2-yl)acetamide] | 0.01 to 10
29 | COc1ccc2c(CC(=O)Nc3nc(C)cs3)coc2c1 [Example 12, 2-(6-Methoxybenzofuran-3-yl)-N-(4-methylthiazol-2-yl)acetamide] | 10 to 100
30 | Cc1ccc2c(CC(=O)Nc3ncc(C(F)(F)F)[nH]3)coc2c1Cl [Example 58, 2-(7-Chloro-6-methyl-benzofuran-3-yl)-N-[5-(trifluoromethyl)-1H-imidazol-2-yl]acetamide] | 0.01 to 10
31 | O=C(Cc1coc2c(Cl)cccc12)Nc1ncc(C(F)(F)F)s1 [Example 53, 2-(7-Chlorobenzofuran-3-yl)-N-[5-(trifluoromethyl)thiazol-2-yl]acetamide] | 0.01 to 10
32 | Cc1ccc2c(CC(=O)Nc3ncc(C(F)(F)F)[nH]3)coc2c1C [Example 55, 2-(6,7-Dimethylbenzofuran-3-yl)-N-[5-(trifluoromethyl)-1H-imidazol-2-yl]acetamide] | 0.01 to 10
33 | O=C(Cc1coc2c(F)c(F)ccc12)Nc1ncc(C(F)(F)F)s1 [Example 39, 2-(6,7-Difluorobenzofuran-3-yl)-N-[5-(trifluoromethyl)thiazol-2-yl]acetamide] | 0.01 to 10
34 | COCc1cnc(NC(=O)Cc2coc3cc(Cl)ccc23)s1 [Example 56] | 0.01 to 10
